Tests used:
[1] = target: T1, AR (Rattus norvegicus, UniProt P15207)
T1 sequence (P15207 1-902): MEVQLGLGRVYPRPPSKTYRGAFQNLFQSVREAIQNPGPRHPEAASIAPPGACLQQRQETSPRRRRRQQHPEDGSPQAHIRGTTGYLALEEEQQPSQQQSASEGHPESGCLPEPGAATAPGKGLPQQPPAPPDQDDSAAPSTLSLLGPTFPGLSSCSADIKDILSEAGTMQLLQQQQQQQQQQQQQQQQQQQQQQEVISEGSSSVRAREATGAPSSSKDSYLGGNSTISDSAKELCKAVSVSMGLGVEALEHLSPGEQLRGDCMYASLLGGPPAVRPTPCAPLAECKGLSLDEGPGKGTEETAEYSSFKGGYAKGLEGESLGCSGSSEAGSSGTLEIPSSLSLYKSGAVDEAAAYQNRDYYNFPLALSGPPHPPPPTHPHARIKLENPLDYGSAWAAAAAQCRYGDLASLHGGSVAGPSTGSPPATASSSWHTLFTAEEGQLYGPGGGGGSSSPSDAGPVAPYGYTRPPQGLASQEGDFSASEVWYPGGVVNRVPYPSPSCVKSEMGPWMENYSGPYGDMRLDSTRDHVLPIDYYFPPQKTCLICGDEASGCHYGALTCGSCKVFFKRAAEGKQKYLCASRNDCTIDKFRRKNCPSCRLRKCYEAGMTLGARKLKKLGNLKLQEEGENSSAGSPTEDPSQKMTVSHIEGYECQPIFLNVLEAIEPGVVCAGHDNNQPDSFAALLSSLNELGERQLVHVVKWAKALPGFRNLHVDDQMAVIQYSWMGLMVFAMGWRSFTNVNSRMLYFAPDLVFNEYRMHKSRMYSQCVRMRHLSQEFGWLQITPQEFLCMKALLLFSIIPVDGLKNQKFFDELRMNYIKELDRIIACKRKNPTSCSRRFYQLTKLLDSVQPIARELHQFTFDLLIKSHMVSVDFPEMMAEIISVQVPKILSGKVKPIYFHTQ
From the text: The activity of compounds of the present invention as AR agonists was investigated in an immature male rat model, a recognized test of anabolic effects in muscle and sustaining effects in sex organs for a given compound, as described in L. G. Hershberger et al., Proc. Soc. […] Biol. Med., 83, 175 (1953); B. L. Beyler et al, “Methods for evaluating anabolic and catabolic agents in laboratory animals”, J. Amer. Med. Women's Ass., 23, 708 (1968); H. Fukuda et al., “Investigations of the levator ani muscle as an anabolic steroid assay”, Nago Dai. Yak. Ken. Nem. 14, 84 (1966) the disclosures of which are herein incorporated by reference.
The basis of this assay lies in the well-defined action of androgenic agents on the maintenance and growth of muscle tissues and sexual accessory organs in animals and man. […] J. Anat. […] Ital. Biol. Sper. […] II. […] Ital. Biol. Sper. 42, 1600 (1966); A. Boris et al., Steroids 15, 61 (1970). As described above, the effects of androgens on maintenance of male sexual accessory organs, such as the prostate and seminal vesicles, is well described. Castration results in rapid involution and atrophy of the prostate and seminal vesicles. This effect can be reversed by exogenous addition of androgens. […]

[2] = test system: wild type AR (MDA 453 cells); details: read-out: Kd for [3H]-DHT, Scatchard analysis
Protocol: For the whole-cell binding assay, human LNCaP cells (T877A mutant AR) or MDA 453 (wild type AR) in 96-well microtiter plates containing RPMI 1640 or DMEM supplemented with 10% charcoal stripped CA-FBS (Cocaleco Biologicals) respectively, were incubated at 37° C. to remove any endogenous ligand that might be complexed with the receptor in the cells.
For the saturation analysis, the difference between the total binding and the non-specific binding, was defined as specific binding. […] See e.g. D. Rodbard, Mathematics and statistics of ligand assays: an illustrated guide: In: J. Langon and J. J. Clapp, eds., Ligand Assay, Masson Publishing U.S.A., Inc., New York, pp. 45-99, (1981), the disclosure of which is herein incorporated by reference.
Two replicates were used for each sample.

## N#Cc1ccc(N2C(=O)N/C(=C\c3ccccc3O)C2=O)c2ccccc12
other
  melting point: 251 to 252 °C

## N#Cc1ccc(N2C(=O)N/C(=C\c3ccc(O)cc3)C2=O)c2ccccc12
other
  melting point: > 275 °C

## CCC(=O)O[C@H]1CC[C@H]2[C@@H]3CCC4=CC(=O)CC[C@]4(C)[C@H]3CC[C@]12C [TP, testosterone propionate]
[1]; TP versus free T
  potency relative to free T: 10-30 fold
[1]; castrated rats, dosing for 3 days
  EC50 (increase in organ weight): ~0.03 mg

## tritiated dihydrotestosterone [[^3H]-DHT]
[2]
  Kd: 0.7 nM
